Data on one compound can be found in patent US10793556B2, “8-amino-2-oxo-1,3-diaza-spiro-[4.5]-decane derivatives” (Grünenthal GmbH, priority 2016, dated 2020).

This assay concerns the target human mu-opioid peptide (hMOP) receptor (Homo sapiens (Human), UniProt P35372). Description: hMOP receptor binding assay (SPA, [3H]naloxone).

pKi: −log10 of the molar value.

human mu-opioid peptide (hMOP) receptor, sequence (P35372 whole entry): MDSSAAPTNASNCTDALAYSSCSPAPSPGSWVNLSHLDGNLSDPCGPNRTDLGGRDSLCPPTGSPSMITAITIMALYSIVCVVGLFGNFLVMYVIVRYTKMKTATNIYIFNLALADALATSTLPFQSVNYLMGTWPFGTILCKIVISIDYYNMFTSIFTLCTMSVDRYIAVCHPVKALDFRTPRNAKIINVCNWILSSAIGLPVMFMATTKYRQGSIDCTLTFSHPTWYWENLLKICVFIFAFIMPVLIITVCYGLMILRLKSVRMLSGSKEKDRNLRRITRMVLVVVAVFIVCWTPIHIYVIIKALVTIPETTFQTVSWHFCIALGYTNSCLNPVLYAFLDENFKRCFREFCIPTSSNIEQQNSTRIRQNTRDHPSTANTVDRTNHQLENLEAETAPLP

Regarding `CN(C)[C@]1(c2ccccc2)CC[C@]2(CC1)CN(CC(C)(C)N1C(=O)CCC1=O)C(=O)N2CC1CC1` [SC_4084, CIS-1-[2-[1-(Cyclopropyl-methyl)-8-dimethylamino-2-oxo-8-phenyl-1,3-diazaspiro[4.5]decan-3-yl]-1,1-dimethyl-ethyl]-pyrrolidine-2,5-dione], the pKi (in general, −log10 of the Ki, conventionally taken in molar units) is 5.61.
